Tests used:
S. hemolyticus UC 152 = test: microplate test in BHI agar, S. hemolyticus UC 152; format: cell-based, Streptococcus hemolyticus; conditions: tested again (table 4), same conditions
Experimental: (§1) Compounds were also tested in a standard microplate test in Brain Heart Infusion (BHI) Agar, at a concentration of 1 mg/ml. Incubation is at 37° and end points are read at 20 hours. Brain Heart Infusion Agar (supplied by Difco Laboratories, Detroit, Michigan, U.S.A.) has the following composition:
(§2) Compounds (7β), (7α) and (9) were tested again along with compounds (11) and (14β) against a neamine control using the same conditions as given above.

S. typhi TG-3 = test: microplate test in BHI agar, S. typhi TG-3; format: cell-based; conditions: table 4, same conditions
Experimental: as §1, §2

P. rettgeri UC 339 = test: microplate test in BHI agar, P. rettgeri UC 339; format: cell-based; conditions: table 4, same conditions
Experimental: as §1, §2

K. pneumoniae UC 58 = test: microplate test in BHI agar, K. pneumoniae UC 58; format: cell-based; conditions: tested again (table 4), same conditions
Experimental: as §1, §2

What does the source list for `NC[C@H]1O[C@H](O[C@H]2[C@H](O)[C@@H](O)[C@H](N)C[C@@H]2N)[C@H](N)[C@@H](O)[C@@H]1O` [Neamine, neamine]?
Minimum Inhibitory Concentration (S. hemolyticus UC 152): 3.9 µg/mL; Minimum Inhibitory Concentration (S. typhi TG-3): 15.6 µg/mL; Minimum Inhibitory Concentration (P. rettgeri UC 339): 1000 µg/mL; Minimum Inhibitory Concentration (K. pneumoniae UC 58): 3.9 µg/mL
